Results from ChEMBL document CHEMBL1131361, “Structure-activity relationships in 2-aminodiphenylsulfides against trypanothione reductase from Trypanosoma cruzi” (Bioorg Med Chem Lett, 1998).

Tested on: not listed separately
Assay: (§1) Michaelis constant was determined.

Q: With `CC1=CC(=O)c2ccccc2C1=O` [MENADIONE] as the compound, how does the Km read?
A: 882 µM

Tested on: not listed separately
Assay: Catalytic rate constant was determined
Format: ADME

Q: With `CC1=CC(=O)c2ccccc2C1=O` [MENADIONE] as the compound, how does the “k cat/Km” value read?
A: 50000 M⁻¹ s⁻¹

Q: With `CN1CCN(CCC(=O)Nc2cc(Br)ccc2Sc2cccc(NC(=O)CCCCCC(=O)OCC3=C(Br)C(=O)c4ccccc4C3=O)c2)CC1` as the compound, how does the “k cat/Km” value read?
A: 8400 M⁻¹ s⁻¹

Tested on: not listed separately
Assay: as §1
Format: ADME

Q: Which Km does the source give for `CN1CCN(CCC(=O)Nc2cc(Br)ccc2Sc2cccc(NC(=O)CCCCCC(=O)OCC3=C(Br)C(=O)c4ccccc4C3=O)c2)CC1` here?
A: 160 µM

Target: Trypanothione reductase (Trypanosoma cruzi, UniProt P28593)
Sequence (P28593 whole entry): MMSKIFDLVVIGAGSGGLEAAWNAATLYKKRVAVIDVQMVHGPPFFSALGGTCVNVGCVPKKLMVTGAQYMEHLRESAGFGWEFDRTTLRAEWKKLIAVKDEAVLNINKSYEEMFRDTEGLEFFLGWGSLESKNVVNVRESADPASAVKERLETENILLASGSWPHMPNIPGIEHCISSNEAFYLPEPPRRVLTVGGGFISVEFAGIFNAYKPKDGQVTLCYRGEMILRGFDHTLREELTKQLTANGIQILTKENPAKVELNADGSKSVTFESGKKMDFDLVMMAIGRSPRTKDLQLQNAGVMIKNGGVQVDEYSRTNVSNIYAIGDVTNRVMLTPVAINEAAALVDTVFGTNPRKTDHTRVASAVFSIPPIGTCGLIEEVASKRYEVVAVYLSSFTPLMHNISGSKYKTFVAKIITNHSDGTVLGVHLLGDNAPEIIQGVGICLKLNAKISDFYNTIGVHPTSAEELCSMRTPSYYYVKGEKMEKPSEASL
Assay: Inhibition of trypanothione reductase from Trypanosoma cruzi, in the presence 57 uM of trypanothione T(SH)2

Q: With `CN1CCN(CCC(=O)Nc2cc(Br)ccc2Sc2cccc(NC(=O)CCCCCC(=O)Nc3cccc(Sc4ccccc4[N+](=O)[O-])c3)c2)CC1` as the compound, how does the IC50 read?
A: > 60 µM

Q: With `CN1CCN(CCC(=O)Nc2cc(Br)ccc2Sc2cccc(NC(=O)CCCC(=O)NCC3CCCO3)c2)CC1` (centres undefined) as the compound, how does the IC50 read?
A: > 60 µM

Q: With `CN1CCN(CCC(=O)Nc2cc(Br)ccc2Sc2cccc(NC(=O)CCCC(=O)NCc3ccc4c(c3)OCO4)c2)CC1` as the compound, how does the IC50 read?
A: 33 µM

Q: For `CCCCCCCCCCCCCCCCNC(=O)CCCC(=O)Nc1cccc(Sc2ccc(Br)cc2NC(=O)CCN2CCN(C)CC2)c1`, which IC50 is on record?
A: > 60 µM

Q: With `CN1CCN(CCC(=O)Nc2cc(Br)ccc2Sc2cccc(NC(=O)CCCC(=O)NCCc3ccccc3)c2)CC1` as the compound, how does the IC50 read?
A: 20 µM

Q: For `CN(C)Cc1ccc(Nc2ccc(NC(=O)CCCCCC(=O)Nc3cccc(Sc4ccc(Br)cc4NC(=O)CCN4CCN(C)CC4)c3)c3c2C(=O)c2ccccc2C3=O)cc1`, which IC50 is on record?
A: 3.3 µM

Q: For `CCCCCCCNC(=O)CCCC(=O)Nc1cccc(Sc2ccc(Br)cc2NC(=O)CCN2CCN(C)CC2)c1`, which IC50 is on record?
A: 23 µM

Q: For `CN1CCN(CCC(=O)Nc2cc(Br)ccc2Sc2cccc(NC(=O)CCCC(=O)NC(c3ccccc3)c3ccccc3)c2)CC1`, which IC50 is on record?
A: 28 µM

Q: With `CN1CCN(CCC(=O)Nc2cc(Br)ccc2Sc2cccc(NC(=O)CCCC(=O)NCC34C[C@H]5C[C@@H](C3)C[C@@H](C4)C5)c2)CC1` as the compound, how does the IC50 read?
A: > 60 µM

Q: Which IC50 does the source give for `CN1CCN(CCC(=O)Nc2cc(Br)ccc2Sc2cccc(NC(=O)CCCC(=O)NCc3ccccn3)c2)CC1` here?
A: > 60 µM

Q: Which IC50 does the source give for `CCN(CC)C(=O)CCCC(=O)Nc1cccc(Sc2ccc(Br)cc2NC(=O)CCN2CCN(C)CC2)c1` here?
A: > 60 µM

Q: For `CN1CCN(CCC(=O)Nc2cc(Br)ccc2Sc2cccc(NC(=O)CCCCCC(=O)Nc3ccc(N)c4c3C(=O)c3ccccc3C4=O)c2)CC1`, which IC50 is on record?
A: > 60 µM

Q: For `CN1CCN(CCC(=O)Nc2cc(Br)ccc2Sc2cccc(NC(=O)CCCCCC(=O)Nc3cccc(Sc4ccccc4N)c3)c2)CC1`, which IC50 is on record?
A: 16 µM

Q: Which IC50 does the source give for `CN1CCN(CCC(=O)Nc2cc(Br)ccc2Sc2cccc(NC(=O)CCCC(=O)Nc3cccc(Sc4ccc(Br)cc4NC(=O)CCN4CCN(C)CC4)c3)c2)CC1` here?
A: 0.55 µM

Q: Which IC50 does the source give for `CN1CCN(CCC(=O)Nc2cc(Br)ccc2Sc2cccc(NC(=O)CCCC(=O)NCc3ccc4ccccc4c3)c2)CC1` here?
A: 25 µM

Q: Which IC50 does the source give for `CN1CCN(CCC(=O)Nc2cc(Br)ccc2Sc2cccc(NC(=O)CCCC(=O)NCc3ccccc3)c2)CC1` here?
A: 35 µM

Q: For `CN1CCN(CCC(=O)Nc2cc(Br)ccc2Sc2cccc(NC(=O)CCCC(=O)NCC3CCCCC3)c2)CC1`, which IC50 is on record?
A: 47 µM

Q: Which IC50 does the source give for `CN1CCN(CCC(=O)Nc2ccccc2Sc2cccc(NC(=O)CCCCCC(=O)Nc3cccc(Sc4ccccc4N)c3)c2)CC1` here?
A: 1.8 µM

Q: Which IC50 does the source give for `CN1CCN(CCC(=O)Nc2cc(Br)ccc2Sc2cccc(NC(=O)CCCCCC(=O)Nc3ccccc3)c2)CC1` here?
A: 14 µM

Q: With `CN1CCN(CCC(=O)Nc2cc(Br)ccc2Sc2cccc(NC(=O)CCCCCC(=O)OCC3=C(Br)C(=O)c4ccccc4C3=O)c2)CC1` as the compound, how does the IC50 read?
A: 41 µM
